Experimental data: patent US20230321462A1, “Method for Improving Olfactory Sensitivity” (Kao Corporation, priority 2019, published 2023)

Tests used:
[1] = system: olfactory sensitivity to 3M3SH; assay: Sensory test: odor sensory intensity to 3M3SH with 3M3SH applied to armpit portions of clothes; format: in vivo, human; settings: fifteen minutes after application of 3M3SH onto the armpit portions, two subjects, FIG. 3
Description: 3M3SH was used as an underarm odor-causing substance. A sensory evaluation sample was prepared by adding one cotton ball (Hakujuji Co., Ltd., No. 10) into a 13.5-mL vial bottle (Maruemu No. 5), and then adding 10 µL of a 3M3SH solution with each diluted concentration thereto. For the 3M3SH solution, mineral oil (Sigma-Aldrich) was used as a solvent, and the concentrations of the solution were set to be 0 µM, 1 µM, 3 µM, 10 µM, 30 µM, 100 µM, and 300 µM.
The sensory test was carried out with two subjects. The subjects wore a commercially available white cloth (material: 65% polyester and 35% cotton). The subjects first smelled the above-described samples in the order from a low concentration sample to a high concentration sample, and odor sensory intensity which the subjects felt was then evaluated. The evaluation was carried out in 9 stages from “0: Not felt” to “4: Unbearably strongly felt,” at intervals of 0.5. Thereafter, the 3M3SH ethanol solution (3 µg/mL) was added in an amount of 10 µL each onto both of the armpit portions of each subject’ clothes (white clothes). Fifteen minutes after addition of this solution, the above-described sensory evaluation was carried out again. […]

OR10G4 = biological target: T1, OR10G4 (Homo sapiens, UniProt Q8NGN3); assay: Luciferase reporter gene assay, response of OR10G4 to odor substances; format: cell-based; settings: OR10G4-expressing HEK293 cells, luciferase fold increase, FIG. 1
T1 construct: Flag-Rho tag (N); expressed in transfected cells; host or cells: HEK293
T1 sequence (Q8NGN3 1-311): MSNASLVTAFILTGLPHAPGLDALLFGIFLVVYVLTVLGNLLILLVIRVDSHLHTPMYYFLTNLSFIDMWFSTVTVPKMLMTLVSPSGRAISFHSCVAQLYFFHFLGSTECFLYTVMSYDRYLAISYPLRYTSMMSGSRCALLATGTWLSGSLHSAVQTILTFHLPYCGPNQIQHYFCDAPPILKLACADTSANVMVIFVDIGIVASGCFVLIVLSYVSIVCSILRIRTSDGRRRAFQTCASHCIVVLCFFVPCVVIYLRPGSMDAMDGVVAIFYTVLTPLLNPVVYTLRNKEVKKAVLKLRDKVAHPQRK
Source text: Genes encoding the human olfactory receptors OR10G4, OR4S2, OR5P3, OR2W1, and OR1A1 (which are as set forth in SEQ ID NOs: 1, 2, 3, 4, and 5, respectively) were cloned. Each gene was cloned by PCR using human genomic DNA female (G1521: Promega) as a template, based on the sequence information registered in GenBank. Each gene amplified by PCR was incorporated into a pENTR vector (Invitrogen) in accordance with the manual, and by utilizing the NotI/AscI site present on the pENTR vector, it was recombined to the NotI/AscI site produced downstream of a Flag-Rho tag sequence on a pME18S vector. […]
(§1) An olfactory receptor expressed in HEK293 cells conjugated with Gαs existing in the cells to activate adenylate cyclase, so as to increase the amount of cAMP in the cells. For the receptor response measurement in the present study, a luciferase reporter gene assay was applied, and an increase in the intracellular amount of cAMP was monitored as a luminescence value derived from a firefly luciferase gene (fluc2P-CRE-hygro). […]
The medium was removed from the culture produced in the above 3), and an odor substance solution was then added thereto. […] The activity of luciferase was measured using Dual-Glo™ luciferase assay system (Promega) in accordance with the operating manual of the product. […]

OR4S2 = biological target: T2, OR4S2 (Homo sapiens, UniProt Q8NH73); assay: Luciferase reporter gene assay, response of OR4S2 to odor substances; format: cell-based; settings: OR4S2-expressing HEK293 cells, luciferase fold increase, FIG. 4, 5, 9
T2 construct: Flag-Rho tag (N); expressed in transfected cells; host or cells: HEK293
T2 sequence (Q8NH73 1-311): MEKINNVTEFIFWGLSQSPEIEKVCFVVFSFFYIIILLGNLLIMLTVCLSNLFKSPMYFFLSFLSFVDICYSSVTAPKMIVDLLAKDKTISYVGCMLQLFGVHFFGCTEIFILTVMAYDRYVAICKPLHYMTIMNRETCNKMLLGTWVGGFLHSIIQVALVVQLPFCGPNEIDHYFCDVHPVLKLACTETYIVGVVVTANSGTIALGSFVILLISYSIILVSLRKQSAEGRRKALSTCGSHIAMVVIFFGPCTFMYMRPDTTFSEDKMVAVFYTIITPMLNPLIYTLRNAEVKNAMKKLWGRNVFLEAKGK
Source text: Genes encoding the human olfactory receptors OR10G4, OR4S2, OR5P3, OR2W1, and OR1A1 (which are as set forth in SEQ ID NOs: 1, 2, 3, 4, and 5, respectively) were cloned. Each gene was cloned by PCR using human genomic DNA female (G1521: Promega) as a template, based on the sequence information registered in GenBank. Each gene amplified by PCR was incorporated into a pENTR vector (Invitrogen) in accordance with the manual, and by utilizing the NotI/AscI site present on the pENTR vector, it was recombined to the NotI/AscI site produced downstream of a Flag-Rho tag sequence on a pME18S vector.
HEK293 cells in which any one of the above-described human olfactory receptors was allowed to express, were produced. A reaction solution having the composition shown in Table 2 was prepared, and was then left to stand in a clean bench for 15 minutes. The resultant was added into each well of a 96-well plate (BD). […]
as §1
The medium was removed from the culture produced in the above 3), and an odor substance solution was then added thereto. […] The activity of luciferase was measured using Dual-Glo™ luciferase assay system (Promega) in accordance with the operating manual of the product. The value fLuc/hRluc was calculated by dividing the value of luminescence derived from firefly luciferase by the value of luminescence derived from Renilla luciferase. A fold increase was calculated by dividing the value fLuc/hRluc induced by cells stimulated with an odor substance, by the value fLuc/hRluc induced by cells not stimulated with an odor substance, and the obtained value was used as an indicator of response intensity. […]

olfactory sensitivity = assay: Sensory test: detection threshold concentration of odor substances before and after oral care; format: in vivo, human; settings: for olfactory sensitivity (detection threshold concentration): 1 hour after oral care vs before oral care
Description: Olfactory sensitivity before and after oral care was evaluated according to a sensory test. The experimental scheme is shown in FIG. 6A, and is also described in detail below. The sensory test was carried out with 14 subjects. On the test day, the subjects were prohibited to eat and drink anything after getting up, and were also prohibited to do oral care including brushing of teeth. The test was started between 8:00 am to 9:30 am. First, exhaled breath was collected from the subjects. Subsequently, the detection threshold concentration of each odor substance was measured according to the sensory test. Thereafter, the subjects ate designated breakfast, and then performed oral care (the brushing of teeth using commercially available toothbrush and dentifrice for 5 minutes, and then, the washing of the mouth using commercially available mouth wash for 30 seconds). At individual time points of 10 minutes and 1 hour after the oral care, exhaled breath was collected from the subjects and the detection threshold concentration of each odor substance was measured.
1 mL of an odor substance solution placed in a vial bottle (Maruemu, No. 2) was used as an odor sample. As such odor substance solutions, a 20-step 2-fold dilution series was prepared regarding each of muscone, indole, and furfuryl mercaptan (highest concentrations: 1000 ppm, 1 mM, and 10 ppb, respectively). Mineral oil (Sigma-Aldrich) was used as a solvent in all cases. As a blank, a vial containing 1 mL of mineral oil was used.
A single test was carried out on two types of odor substance among muscone, indole, and furfuryl mercaptan. […] The test participants smelled the odors contained in the vials and tried to choose the vial containing an odor solution. The test was started with an odor sample having the third low concentration. When the subject’s selection was incorrect or the subject could not choose the vial even once, the same trial was carried out using an odor sample having one step higher concentration. When the subject’ selection was correct two times in a row, the same trial was carried out using an odor sample having one step lower concentration. When the subject’ selection was correct two times in a row using an odor sample with a new concentration, the subject was tested using an odor sample having further one step lower concentration. When the subject could not choose the correct vial even once, the subject was tested using an odor sample having one step higher concentration. Switching from a high concentration to a low concentration, and from a low concentration to a high concentration, was recorded 7 times in total, and the mean value of the concentrations measured 4 times in the second half was defined as a detection threshold concentration. The detection threshold concentrations of each odor substance before and after oral care were compared with each other according to the Wilcoxon signed-rank test, and the p value was calculated. The statistical analysis was carried out using R Software (Ver.3.6.0).

OR5AN1 = biological target: T3, OR5AN1 (Homo sapiens, UniProt Q8NGI8); settings: Patent Literature 1; cited from earlier work
T3 sequence (Q8NGI8 1-311): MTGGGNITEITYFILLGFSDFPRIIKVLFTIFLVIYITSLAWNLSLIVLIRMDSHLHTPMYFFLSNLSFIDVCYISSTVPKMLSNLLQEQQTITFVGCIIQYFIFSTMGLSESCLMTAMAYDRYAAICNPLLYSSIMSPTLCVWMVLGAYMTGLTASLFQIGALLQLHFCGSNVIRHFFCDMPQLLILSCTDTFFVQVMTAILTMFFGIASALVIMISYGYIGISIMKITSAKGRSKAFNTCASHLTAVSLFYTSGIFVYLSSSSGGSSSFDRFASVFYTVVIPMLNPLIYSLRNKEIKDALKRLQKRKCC

SMILES | response of OR10G4 to odor substances (OR10G4) | response of OR4S2 to odor substances (OR4S2) | olfactory sensitivity (detection threshold concentration) (olfactory sensitivity; FIG. 7A) | other results
CCCC(C)(S)CCO (stereo not drawn) [3M3SH, 3-Methyl-3-sulfanylhexan-1-ol] | – | – | – | odor intensity of 3M3SH felt from the sample [1]: reduced
CCOc1cc(C=O)ccc1O [ethyl vanillin, Ethyl vanillin] | activate OR10G4 | – | – | –
SCc1ccco1 [furfuryl mercaptan, Furfuryl mercaptan] | – | is activated by | statistically significantly improved | –
COc1ccccc1O [guaiacol, Guaiacol] | activate OR10G4 | – | – | –
c1ccc2[nH]ccc2c1 [indole, Indole] | – | activate OR4S2 | statistically significantly improved | detection threshold concentration relative to before oral care (olfactory sensitivity; 10 minutes after the oral care, FIG. 7B): 1/16; detection threshold concentration relative to before oral care (olfactory sensitivity; 1 hour after the oral care, on average, FIG. 7A): ⅛
C[C@@H]1CCCCCCCCCCCCC(=O)C1 [muscone, Muscone] | – | is not activated by | no statistically significant difference | recognition by OR5AN1 (OR5AN1): recognized, mainly mediated by OR5AN1
